Patent US20150105252A1, “SUBSTITUTED PYRAZOLES AS HERBICIDES” (E I DU PONT DE NEMOURS AND COMPANY, priority 2013, published 2015)

Legend:
chickweed [1] = test: Test D preemergence; type: in vivo, Stellaria media; conditions: Preemergence, scale 0 to 100
Excerpt: (§1) Seeds of plant species selected from bluegrass (annual bluegrass, Poa annua), blackgrass (Alopecurus myosuroides), canarygrass (littleseed canarygrass, Phalaris minor), chickweed (common chickweed, Stellaria media), galium (catchweed bedstraw, Galium aparine), bromegrass, downy (downy bromegrass, Bromus tectorum), field poppy (Papaver rhoeas), field violet (Viola arvensis), foxtail, green (green foxtail, Setaria viridis), deadnettle (henbit deadnettle, Lamium amplexicaule), ryegrass, Italian (Italian ryegrass, Lolium multiflorum), kochia (Kochia scoparia), lambsquarters (Chenopodium album), oilseed rape (Brassica napus), pigweed (redroot pigweed, Amaranthus retroflexus), chamomile (scentless chamomile, Matricaria inodora), speedwell (bird's-eye speedwell, Veronica persica), barley, spring (spring barley, Hordeum vulgare), wheat, spring (spring wheat, Triticum aestivum), buckwheat, wild (wild buckwheat, Polygonum convolvulus), mustard, wild (wild mustard, Sinapis arvensis), oat, wild (wild oat, Avena fatua), radish, wild (wild radish, Raphanus raphanistrum), windgrass (Apera spica-venti), Russian thistle (Salsola kali), barley, winter (winter barley, Hordeum vulgare), and wheat, winter (winter wheat, Triticum aestivum) were planted into a silt loam soil and treated preemergence with test chemicals formulated in a non-phytotoxic solvent mixture which included a surfactant.
(§2) At the same time, these species were planted in pots containing Redi-Earth® planting medium (Scotts Company, 14111 Scottslawn Road, Marysville, Ohio 43041) comprising spaghnum peat moss, vermiculite, wetting agent and starter nutrients and treated with postemergence applications of the test chemicals formulated in the same manner. Plants ranged in height from 2 to 18 cm (1- to 4-leaf stage). Treated plants and controls were maintained in a controlled growth environment for 14 to 21 days after which time all species were compared to controls and visually evaluated. Plant response ratings, summarized in Table D, are based on a scale of 0 to 100 where 0 is no effect and 100 is complete control. A dash (-) response means no test result.

deadnettle [2] = test: Test D postemergence; type: in vivo, Lamium amplexicaule; conditions: scale 0 to 100
How it was run: (§3)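 Visual injury scored 0–100 (0 none, 100 complete control) against controls 14–21 days after treatment in a controlled growth environment. Chemicals were formulated in a non-phytotoxic solvent mixture containing surfactant, applied to silt loam soil preemergence or to 1- to 4-leaf plants postemergence.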

blackgrass [3] = test: Test D preemergence; type: in vivo, Alopecurus myosuroides; conditions: Preemergence, scale 0 to 100
How it was run: as §3

blackgrass [4] = test: Test D postemergence; type: in vivo, Alopecurus myosuroides; conditions: scale 0 to 100
How it was run: as §3

chickweed [5] = test: Test D postemergence; type: in vivo, Stellaria media; conditions: scale 0 to 100
Excerpt: as §1, §2

oilseed rape = test: Test D preemergence; type: in vivo, Brassica napus; conditions: Preemergence, scale 0 to 100
Excerpt: as §1, §2

pigweed = test: Test D postemergence; type: in vivo, Amaranthus retroflexus; conditions: scale 0 to 100
Excerpt: as §1, §2

wheat, winter = test: Test D preemergence; type: in vivo, Triticum aestivum; conditions: Preemergence, scale 0 to 100
How it was run: as §3

wheat, spring = test: Test D preemergence; type: in vivo, Triticum aestivum; conditions: Preemergence, scale 0 to 100
How it was run: as §3

radish, wild = test: Test D preemergence; type: in vivo, Raphanus raphanistrum; conditions: Preemergence, scale 0 to 100
How it was run: as §3

speedwell = test: Test D postemergence; type: in vivo, Veronica persica; conditions: scale 0 to 100
How it was run: as §3

bromegrass, downy = test: Test D preemergence; type: in vivo, Bromus tectorum; conditions: Preemergence, scale 0 to 100
How it was run: as §3

bluegrass = test: Test D postemergence; type: in vivo, Poa annua; conditions: scale 0 to 100
How it was run: as §3

foxtail, green = test: Test D preemergence; type: in vivo, Setaria viridis; conditions: Preemergence, scale 0 to 100
How it was run: as §3

deadnettle [6] = test: Test D preemergence; type: in vivo, Lamium amplexicaule; conditions: Preemergence, scale 0 to 100
How it was run: as §3

Compound: CCc1cc(C(=O)NCC(F)(F)F)nn1Cc1ccnc(SC(F)(F)F)c1 [Compound 214]
- Plant response rating, Chickweed (chickweed [1]; 31 g ai/ha): 90
- Plant response rating, Chickweed (chickweed [1]; 62 g ai/ha): 75
- Plant response rating, Chickweed (chickweed [1]; 125 g ai/ha): 100
- Plant response rating, Chickweed (chickweed [1]; 250 g ai/ha): 100
- Deadnettle plant response rating (deadnettle [2]; Postemergence, 31 g ai/ha): 50
- Deadnettle plant response rating (deadnettle [2]; Postemergence, 125 g ai/ha): 60
- Deadnettle plant response rating (deadnettle [2]; Postemergence, 250 g ai/ha): 70
- Deadnettle plant response rating (deadnettle [2]; postemergence, 62 g ai/ha): 50
- Plant response rating, Blackgrass (blackgrass [3]; 31 g ai/ha): 35
- Plant response rating, Blackgrass (blackgrass [3]; 62 g ai/ha): 75
- Plant response rating, Blackgrass (blackgrass [3]; 125 g ai/ha): 90
- Plant response rating, Blackgrass (blackgrass [3]; 250 g ai/ha): 100
- Blackgrass plant response rating (blackgrass [4]; Postemergence, 31 g ai/ha): 15
- Blackgrass plant response rating (blackgrass [4]; Postemergence, 125 g ai/ha): 20
- Blackgrass plant response rating (blackgrass [4]; Postemergence, 250 g ai/ha): 70
- Blackgrass plant response rating (blackgrass [4]; postemergence, 62 g ai/ha): 15
- Chickweed plant response rating (chickweed [5]; Postemergence, 31 g ai/ha): 65
- Chickweed plant response rating (chickweed [5]; Postemergence, 125 g ai/ha): 70
- Chickweed plant response rating (chickweed [5]; Postemergence, 250 g ai/ha): 70
- Chickweed plant response rating (chickweed [5]; postemergence, 62 g ai/ha): 65
- Plant response rating, Oilseed Rape (oilseed rape; 62 g ai/ha): 65
- Plant response rating, Oilseed Rape (oilseed rape; 125 g ai/ha): 100
- Plant response rating, Oilseed Rape (oilseed rape; 250 g ai/ha): 100
- Pigweed plant response rating (pigweed; Postemergence, 31 g ai/ha): 90
- Pigweed plant response rating (pigweed; Postemergence, 125 g ai/ha): 90
- Pigweed plant response rating (pigweed; Postemergence, 250 g ai/ha): 95
- Pigweed plant response rating (pigweed; postemergence, 62 g ai/ha): 90
- Plant response rating, Wheat, Winter (wheat, winter; 62 g ai/ha): 15
- Plant response rating, Wheat, Winter (wheat, winter; 125 g ai/ha): 55
- Plant response rating, Wheat, Winter (wheat, winter; 250 g ai/ha): 75
- Plant response rating, Wheat, Spring (wheat, spring; 62 g ai/ha): 10
- Plant response rating, Wheat, Spring (wheat, spring; 125 g ai/ha): 40
- Plant response rating, Wheat, Spring (wheat, spring; 250 g ai/ha): 75
- Plant response rating, Radish, Wild (radish, wild; 62 g ai/ha): 100
- Plant response rating, Radish, Wild (radish, wild; 125 g ai/ha): 100
- Plant response rating, Radish, Wild (radish, wild; 250 g ai/ha): 100
- Speedwell plant response rating (speedwell; Postemergence, 31 g ai/ha): 90
- Speedwell plant response rating (speedwell; Postemergence, 125 g ai/ha): 95
- Speedwell plant response rating (speedwell; Postemergence, 250 g ai/ha): 100
- Speedwell plant response rating (speedwell; postemergence, 62 g ai/ha): 90
- Plant response rating, Bromegrass, Downy (bromegrass, downy; 31 g ai/ha): 15
- Plant response rating, Bromegrass, Downy (bromegrass, downy; 62 g ai/ha): 25
- Plant response rating, Bromegrass, Downy (bromegrass, downy; 125 g ai/ha): 35
- Plant response rating, Bromegrass, Downy (bromegrass, downy; 250 g ai/ha): 80
- Bluegrass plant response rating (bluegrass; Postemergence, 31 g ai/ha): 15
- Bluegrass plant response rating (bluegrass; Postemergence, 125 g ai/ha): 15
- Bluegrass plant response rating (bluegrass; Postemergence, 250 g ai/ha): 20
- Bluegrass plant response rating (bluegrass; postemergence, 62 g ai/ha): 15
- Plant response rating, Foxtail, Green (foxtail, green; 62 g ai/ha): 100
- Plant response rating, Foxtail, Green (foxtail, green; 125 g ai/ha): 100
- Plant response rating, Foxtail, Green (foxtail, green; 250 g ai/ha): 100
- Plant response rating, Deadnettle (deadnettle [6]; 31 g ai/ha): 90
- Plant response rating, Deadnettle (deadnettle [6]; 62 g ai/ha): 100
- Plant response rating, Deadnettle (deadnettle [6]; 125 g ai/ha): 100
- Plant response rating, Deadnettle (deadnettle [6]; 250 g ai/ha): 100
